Measurements: patent US20050165082A1, “Methods of treating vasomotor symptoms” (Wyeth, priority 2003, published 2005)
“Also recorded” adds a separate entry of the source.

Legend:
[1] = tested on: naloxone-induced flush in morphine-dependent ovariectomized rats; experiment: Morphine-dependent rat model: naloxone-induced flush, tail skin temperature (TST); type: in vivo
Method: (§1) Dosing: All doses were prepared based on mg/kg. All compounds were administered intraperitoneally and dissolved and used at the following dosages: SSR149415 (V1b receptor antagonist, 3.0-30 mg/kg was dissolved in 5% DMSO in 5% Cremophor EL). SSR49059 (V1a receptor antagonist, 30 mg/kg was dissolved 10% DMSO/sterile H2O) and VPA-985 (V2 receptor antagonist, 30 mg/kg was dissolved 10% DMSO/sterile H2O). Naloxone (1.0 mg/kg was dissolved in sterile H2O) was injected subcutaneously.
Animals: Ovariectomized Sprague-Dawley rats (180-220 g) were obtained from a commercial vendor (Taconic, Germantown, N.Y.) and individually housed under 12 hours light/dark cycle in a room maintained at 25° C. Animals were provided with standard rat chow and water ad libitum.
Morphine-dependent model: Ovariectomized rats were injected once daily for 8-9 days with vehicle to minimize stress responses and then administered compound(s) on test day (10 rats/group). On day 4 of vehicle dosing, morphine dependence was induced by sc implantation of two slow-release morphine pellets (75 mg/pellet) in the dorsal scapular region. This model is based upon an established morphine-dependent naloxone-induced flush paradigm that is reversible by estrogen treatment (Katovich et al., Proceedings of the Society for Experimental Biology & Medicine, 1990. 193(2): p. 129-35). Four to six days after implantation, morphine withdrawal was induced with an opioid antagonist (naloxone) that causes a transient increase in TST. In a typical experiment, rats were administered their final dose of test compound 40 minutes prior to naloxone injection. Rats were mildly sedated with ketamine and a thermistor connected to a MacLab data acquisition system (CB Sciences, Dover, N.H.) was taped to the base of the tail. Tail skin temperature was then monitored continuously for 10 minutes to establish a baseline temperature. Naloxone was subsequently administered and TST was measured for an additional […] (total recording time 95 min).
Statistical analysis: To analyze changes in TST induced by naloxone in morphine-dependent rats, all data was analyzed using a two factors repeated measure. The factors were “treatment” and “time” (repeated). The model was fit to test whether there were significant differences in the responses between treatment groups. The data was analyzed at 5 minute intervals from 20 minutes (−20) prior to the naloxone administration (referred to as time 0) to 60 minutes after the treatment. Multiple comparisons (LSD p-values) among the treatment groups at each time point were used for the analysis, however, the changes in TST is greatest at 15 minutes post naloxone administration and this time point provides the best indicator of flush abatement. When appropriate estimation of the ED50 value was calculated. The ED50 value was determined using a log scale and the line was fit between the maximal (15 minutes post naloxone ΔTST) and minimal response (average baseline temperature prior to naloxone). The ED50 value is reported as the dose of test compound that abates 50% of the naloxone-induced flush.
Method used as described in the general method section under morphine-dependent rat model with the following exceptions: in the morphine-dependent model rats were injected intraperitoneally with vehicle (5% DMSO in 5% Cremophor EL) or SSR149415 (V1b receptor antagonist) which may be prepared as described in WO 01/55134, dissolved in 5% DMSO in 5% Cremophor EL and administered at 3.0 and 30 mg/kg 40 minutes prior to naloxone injection (FIGS. 1A and 1B). […] At the highest dose (30 mg/kg) tested antagonism of the V1b receptor produced a 60% abatement of the naloxone-induced flush. […]

[2] = tested on: tail skin temperature in ovariectomized rats; experiment: OVX-induced thermoregulatory dysfunction telemetry model (TST); type: in vivo, rat; conditions: 30 mg/kg intraperitoneal, 30 minutes prior to onset of dark cycle
Method: as §1
Animals: Ovariectomized Sprague-Dawley rats (180-220 g) were obtained from a commercial vendor (Taconic, Germantown, N.Y.) and individually housed under 12 hours light/dark cycle in a room maintained at 25° C. […]
OVX-induced thermoregulatory dysfunction telemetry model: To determine the effect that test compounds had on thermoregulation, TST was monitored in ovariectomized rats by telemetry (6-7 rats/group). […] After a 7 day recovery period rats were administered a vehicle injection and TST monitored continuously for 12 hours (Day 1). Twenty-four hours later rats were administered either vehicle or test compound and TST monitored continuously for 12 hours (Day 2). […]
To analyze changes in TST induced by test compounds in the thermoregulatory dysfunction model a 2-day paradigm was used. […] On Day 2, test compound is administered and TST readings are recorded every 30 minutes as described above. […]

[3] = 30 mg/kg intraperitoneal, 15 minutes post-naloxone

| Compound | effect on naloxone-induced flush at maximal flush (ΔTST) [1, 3] | effect on naloxone-induced flush at maximal flush (ΔTST) ([1]; 3.0 mg/kg intraperitoneal, 15 minutes post-naloxone) | abatement of the naloxone-induced flush ([1]; 30 mg/kg intraperitoneal (highest dose), 40 minutes prior to naloxone) | changes in TST over time, naloxone-induced flush ([1]; 3.0 and 30 mg/kg intraperitoneal, 40 minutes prior to naloxone) | ED50 ([1]; Rattus norvegicus, ip, intraperitoneal, 40 minutes prior to naloxone, maximal flush, 15 minutes post-naloxone, read-out: ED50 value, abatement of naloxone-induced flush) | change in TST (ΔTST) relative to vehicle, active phase [2] |
| --- | --- | --- | --- | --- | --- | --- |
| Cc1ccc(F)cc1C(=O)Nc1ccc(C(=O)N2Cc3cccn3Cc3ccccc32)c(Cl)c1 [VPA-985] | lack efficacy in attenuating the naloxone-induced flush; also recorded: failed to abate the naloxone-induced flush | – | – | – | – | – |
| COc1ccc(S(=O)(=O)N2C(=O)C(c3ccccc3OC)(N3C[C@H](O)C[C@H]3C(=O)N(C)C)c3cc(Cl)ccc32)c(OC)c1 (stereo partly drawn) [SSR149415, (2S,4R)-1-[5-Chloro-1-[(2,4-dimethoxyphenyl)-sulfonyl]-3-(2-methoxy-phenyl)-2-oxo-2,3-dihydro-1H-indol-3-yl]-4-hydroxy-N,N-dimethyl-2-pyrrolidine carboxamide] | significantly and dose-dependently abated the naloxone-induced flush | no effect | 60% | dose-dependently abates the naloxone-induced flush | 12.1 mg/kg | significant decrease in ΔTST; also recorded: able to restore normal thermoregulation; also recorded: significantly and transiently decreased TST |
| COc1ccc(S(=O)(=O)N2c3ccc(Cl)cc3[C@](O)(c3ccccc3Cl)[C@@H]2C(=O)N2CCC[C@H]2C(N)=O)cc1OC [SR49059] | lack efficacy in attenuating the naloxone-induced flush; also recorded: failed to abate the naloxone-induced flush | – | – | – | – | – |
